Measurements published in patent publication US11352354B2, “Substituted penta-fused hexa-heterocyclic compounds, preparation method therefor, drug combination and use thereof” (Xiamen University, priority 2017, dated 2022).
“Also recorded” adds a separate entry of the source.

Key:
JeKo-1 cells [1] = test: Lysosomal dysfunction caused by inhibition of PIKfyve, Western Blot of cathepsins in JeKo-1 cells; type: cell-based; details: treatment for 24 hr, FIG. 3
Source text: V. Lysosomal Dysfunction Caused by Inhibition of Compound V-c-17 on PIKfyve (FIG. 3)
After treatment with V-c-17 for 24 hr, JeKo-1 cells were lysed and tested by Western Blot. […] This was similar to the treatment result with the known PIKfyve inhibitor apilimod.

SK-MEL-28 = test: Tumor cell growth inhibition by MTS method, SK-MEL-28; type: cell-based; details: Homo sapiens; SK-MEL-28, 3.3 μM; read-out: Inhibition rate %
Description: (§1) III. Determination of IC50 Value of Compound for Inhibiting Tumor Cell Growth by MTS Method
(§2) 1. Cell plating: cells in logarithmic growth phase were counted and inoculated in a 96-well plate (20000 cells per well).
(§3) 2. Administrating agent to cell: 10 mM compound mother solution in DMSO was subjected to 3 fold-gradient dilution, to set 8 concentrations, which were then added to various wells, with three replicates for each concentration, and three blank wells (only culture medium) and three negative controls (containing 0.1% DMSO) on each plate.
(§4) 3. […] The OD value at 490 nm was measured with microplate reader OD490. The cell growth inhibition rate was calculated by the following formula: Cell growth inhibition rate %=1−(ODexperimental group−ODblank group)/(ODnegative group−ODblank group)×100%

MDA-MB-435S = test: Tumor cell growth inhibition by MTS method, MDA-MB-435S; type: cell-based; details: Homo sapiens, read-out: Inhibition rate %
Description: as §1, §2, §3, §4

HepG2 = test: Tumor cell growth inhibition by MTS method, HepG2; type: cell-based; details: Homo sapiens; HepG2, 3.3 μM; read-out: Inhibition rate %
Description: as §1, §2, §3, §4

BGC823 = test: Tumor cell growth inhibition by MTS method, BGC823; type: cell-based; details: Homo sapiens, BGC-823; BGC823, 3.3 μM; read-out: Inhibition rate %
Description: as §1, §2, §3, §4

JeKo-1 cells [2] = test: Tumor cell growth inhibition by MTS method, JeKo-1; type: cell-based; details: Homo sapiens, JeKo-1, 120 h, 5 days of culture; for inhibition at 10 µM: read-out: cell growth inhibition rate of compounds at 10 μM
Method in brief: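 Cells seeded at 20000 per well, treated with 8-point 3-fold dilutions from 10 mM DMSO stock in triplicate, 0.1% DMSO controls. MTS read at OD490; IC50 from inhibition rates, or % inhibition at 10 μM.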

A549 = test: Tumor cell growth inhibition by MTS method, A549; type: cell-based; details: Homo sapiens; A549, 3.3 μM; read-out: Inhibition rate %
Description: as §1, §2, §3, §4

HCT116 = test: Tumor cell growth inhibition by MTS method, HCT116; type: cell-based; details: Homo sapiens, HCT-116; HCT116, 3.3 μM; read-out: Inhibition rate %
Description: as §1, §2, §3, §4

MDA-MB-231 xenograft = test: Xenograft model of triple negative breast cancer cells (MDA-MB-231) in nude mice; type: in vivo
Description: 1. 4-6 weeks old female nude mice were injected subcutaneously with about 5×10^6 MDA-MB-231 cells;
2. When tumor volume (length×width×height×0.5) reached about 100 mm^3, the mice were randomly divided into three groups: control group, group with a dose of 5 mg/kg once a day, and group with a dose of 20 mg/kg once a day, and the initial tumor volume was recorded.
3. The drug or the control solvent was administered intravenously on time every day, the tumor volume was measured every day, and the procedures were continued for 12 days;
(§5) 4. In the last day, the mice were killed 6 hours after administration, the tumor grown under skin was completely peeled off, and the tumor weight was recorded.

MDA-MB-231 = test: Tumor cell growth inhibition by MTS method, MDA-MB-231; type: cell-based; details: Homo sapiens; MDA-MB-231, 3.3 μM; read-out: Inhibition rate %
Description: as §1, §2, §3, §4

SK-MEL-30 = test: Tumor cell growth inhibition by MTS method, SK-MEL-30; type: cell-based; details: Homo sapiens; SK-MEL-30, 3.3 μM; read-out: Inhibition rate %
Description: as §1, §2, §3, §4

MDA-MB-231 cells = test: Vacuolation of MDA-MB-231 cells caused by inhibition of compounds on PIKfyve (microscopy); type: cell-based; details: MDA-MB-231 cells; also: key: '+' represents the degree of vacuolation; ++: more '+' indicates more obvious vacuolation; +++: more '+' indicates more obvious vacuolation; ++++: more '+' indicates more obvious vacuolation; '−' represents no vacuolation
Method in brief: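 MDA-MB-231 cells in 12-well plates at 37 °C, 5% CO2 were observed by microscopy after 24 and 48 h of culture for cytoplasmic vacuolation as a readout of PIKfyve inhibition. Scoring was semi-quantitative, from − (none) to increasing +.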

A375 = test: Tumor cell growth inhibition by MTS method, A375; type: cell-based; details: Homo sapiens, A-375; A375, 3.3 μM; read-out: Inhibition rate %
Description: as §1, §2, §3, §4

MCF-7 = test: Tumor cell growth inhibition by MTS method, MCF-7; type: cell-based; details: Homo sapiens, MCF7; MCF-7, 3.3 μM; read-out: Inhibition rate %
Description: as §1, §2, §3, §4

ST486 cells = test: Growth inhibition of PIKfyve-mediated tumor cells by Cell Titer Glo method, ST486; type: cell-based; details: Homo sapiens, 120 h, CellTiter-Glo, 5 days of culture, read-out: Inhibition rate % (ST486)
Description: (§6) IV. Determination of Growth Inhibition Rates of Compounds Against PIKfyve-Mediated Tumor Cells by Cell Titer Glo Method
(§7) 1. Cell plating: cells in logarithmic growth phase were counted and inoculated in 384-well plate.
(§8) 3. […] RLU was measured on PHERAstar Plus.

Toledo cells = test: Growth inhibition of PIKfyve-mediated tumor cells by Cell Titer Glo method, Toledo; type: cell-based; details: Homo sapiens, 120 h, CellTiter-Glo, 5 days of culture, read-out: Inhibition rate % (Toledo)
Description: as §6, §7, §8

PIKfyve protein = PIKfyve protein (Homo sapiens (Human), UniProt Q9Y2I7); test: Dissociation equilibrium constant (Kd) of compound and PIKfyve protein, DiscoverX KINOMEscan; type: binding; details: eleven 3-fold dilutions, curve fitting
Description: II. Determination of Dissociation Equilibrium Constant (Kd Value) of Compound and PIKfyve Protein
The Kd value was determined by DiscoverX's KINOMEscan™ technology according to the following steps:
1. Preparation of magnetic beads: biotin-labeled small molecule ligand and avidin-coated magnetic beads were allowed to interact at room temperature for 30 minutes, and then added with excess biotin, followed by washing with a blocking solution (1% BSA, 0.05% Tween 20, 1 mM DTT) to remove unbound ligand.
2. Binding reaction: in a 384 plate, 0.02 mL system, DNA-labeled protein, small molecule ligand-bound magnetic beads, and different concentrations of compound to be tested were mixed in a reaction solution (0.17×PBS, 0.05% Tween 20, 6 mM DTT) at room temperature with shaking for 1 hr, to which was added an eluant (1×PBS, 0.05% Tween 20) for elution. Magnetic beads were resuspended by an eluant (1×PBS, 0.05% Tween 20, 0.5 μM non-biotin-labeled small molecule ligand), and shaken at room temperature for 30 min before separating out the eluant.
3. Determination of Kd value: the content of protein in the above eluate was determined by qPCR. Eleven 3-fold dilution concentrations were determined for the compound to be tested, with 3 DMSO controls for each concentration, and the Kd value was obtained by curve fitting.

JeKo-1 xenograft = test: Xenograft model of non-Hodgkin's lymphoma cells (JeKo-1) in nude mice; type: in vivo; details: 25 mg/kg once a day or twice a day
Description: 1. 4-6 weeks old female nude mice were injected subcutaneously with about 1×10^7 JeKo-1 cells;
2. When tumor volume (length×width×height×π/4) reached about 100 mm^3, the mice were randomly divided into four groups: control group, V-c-17 group with a dose of 25 mg/kg once a day, V-c-17 group with a dose of 25 mg/kg twice a day, and apilimod group with a dose of 25 mg/kg once a day, and the initial tumor volume was recorded.
3. The drug or the control solvent was administered intravenously on time every day, the tumor volume was measured every day, and the procedures were continued for 7 days;
as §5

Sequence of PIKfyve protein (Q9Y2I7 whole entry): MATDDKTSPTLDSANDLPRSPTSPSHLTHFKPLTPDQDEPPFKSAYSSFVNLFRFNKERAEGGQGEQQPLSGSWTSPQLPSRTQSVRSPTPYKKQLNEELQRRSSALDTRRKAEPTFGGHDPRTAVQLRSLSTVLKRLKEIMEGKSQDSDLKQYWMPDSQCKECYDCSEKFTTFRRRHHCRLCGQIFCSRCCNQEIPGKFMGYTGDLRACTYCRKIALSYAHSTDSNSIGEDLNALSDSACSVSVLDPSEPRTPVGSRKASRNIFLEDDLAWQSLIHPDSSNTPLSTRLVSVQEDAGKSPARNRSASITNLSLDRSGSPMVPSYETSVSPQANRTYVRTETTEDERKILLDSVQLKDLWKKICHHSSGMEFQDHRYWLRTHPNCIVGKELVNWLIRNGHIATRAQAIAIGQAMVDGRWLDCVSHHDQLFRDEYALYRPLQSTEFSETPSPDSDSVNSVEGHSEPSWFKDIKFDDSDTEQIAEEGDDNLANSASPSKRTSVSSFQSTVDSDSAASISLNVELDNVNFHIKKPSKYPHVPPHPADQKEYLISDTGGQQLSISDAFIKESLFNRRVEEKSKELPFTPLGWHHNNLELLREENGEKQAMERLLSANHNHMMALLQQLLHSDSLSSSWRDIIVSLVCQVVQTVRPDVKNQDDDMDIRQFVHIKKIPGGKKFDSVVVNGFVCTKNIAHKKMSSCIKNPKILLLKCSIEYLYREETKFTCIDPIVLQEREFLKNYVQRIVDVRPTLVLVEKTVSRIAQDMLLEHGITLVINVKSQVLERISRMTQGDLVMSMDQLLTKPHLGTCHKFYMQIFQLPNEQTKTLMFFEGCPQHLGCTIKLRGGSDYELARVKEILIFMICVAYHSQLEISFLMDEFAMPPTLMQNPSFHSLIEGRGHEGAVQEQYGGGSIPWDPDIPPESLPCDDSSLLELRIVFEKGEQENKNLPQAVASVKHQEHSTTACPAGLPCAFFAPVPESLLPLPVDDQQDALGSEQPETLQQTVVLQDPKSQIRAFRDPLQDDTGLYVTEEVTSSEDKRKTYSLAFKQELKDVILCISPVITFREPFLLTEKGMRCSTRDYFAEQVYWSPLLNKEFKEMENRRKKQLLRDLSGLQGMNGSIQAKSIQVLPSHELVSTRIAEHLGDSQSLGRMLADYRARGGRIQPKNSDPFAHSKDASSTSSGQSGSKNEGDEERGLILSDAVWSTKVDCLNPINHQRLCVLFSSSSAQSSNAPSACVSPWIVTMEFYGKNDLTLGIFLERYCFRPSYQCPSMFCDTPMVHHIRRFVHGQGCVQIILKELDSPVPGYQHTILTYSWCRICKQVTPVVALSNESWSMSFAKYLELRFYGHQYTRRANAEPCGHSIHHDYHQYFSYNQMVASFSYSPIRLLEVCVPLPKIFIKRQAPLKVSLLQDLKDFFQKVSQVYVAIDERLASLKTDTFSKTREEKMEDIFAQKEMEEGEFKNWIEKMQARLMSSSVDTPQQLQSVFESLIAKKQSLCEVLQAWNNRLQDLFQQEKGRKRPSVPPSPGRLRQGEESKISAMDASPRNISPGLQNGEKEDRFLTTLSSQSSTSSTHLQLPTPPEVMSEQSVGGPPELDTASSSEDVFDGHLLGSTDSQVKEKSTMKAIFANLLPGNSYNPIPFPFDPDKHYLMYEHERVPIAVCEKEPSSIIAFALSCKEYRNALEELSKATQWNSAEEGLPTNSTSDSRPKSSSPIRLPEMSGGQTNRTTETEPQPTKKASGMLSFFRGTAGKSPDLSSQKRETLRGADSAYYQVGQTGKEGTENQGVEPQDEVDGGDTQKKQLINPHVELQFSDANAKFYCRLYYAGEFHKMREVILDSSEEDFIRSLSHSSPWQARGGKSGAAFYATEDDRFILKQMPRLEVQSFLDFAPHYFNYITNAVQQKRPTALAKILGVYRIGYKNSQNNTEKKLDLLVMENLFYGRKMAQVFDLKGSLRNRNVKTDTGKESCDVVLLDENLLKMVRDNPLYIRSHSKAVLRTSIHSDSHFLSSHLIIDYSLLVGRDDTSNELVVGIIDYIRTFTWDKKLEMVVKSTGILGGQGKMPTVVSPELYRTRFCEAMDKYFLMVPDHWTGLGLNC

| Structure (SMILES) | Kd (PIKfyve protein) | immature cathepsin A and cathepsin D (Western Blot) (JeKo-1 cells [1]) | IC50 (JeKo-1 cells [2]) | degree of vacuolation, 1 μM, 24 h (MDA-MB-231 cells) | degree of vacuolation, 1 μM, 48 h (MDA-MB-231 cells) | degree of vacuolation, 10 μM, 24 h (MDA-MB-231 cells) | degree of vacuolation, 10 μM, 48 h (MDA-MB-231 cells) | inhibition at 3.3 µM (ST486 cells) | inhibition at 10 µM (JeKo-1 cells [2]) | inhibition at 3.3 µM (Toledo cells) | other results |
| --- | --- | --- | --- | --- | --- | --- | --- | --- | --- | --- | --- |
| Cc1cccc(/C=N/Nc2cc(N3CCOCC3)nc(OCCc3ccccn3)n2)c1 [apilimod, reference compound] |  | immature cathepsins A and D gradually increase, with good dose dependence |  |  |  |  |  |  |  |  |  |
| Cc1ccc(NC(=O)c2cccc(C(F)(F)F)c2)cc1Nc1cc(-c2cccnc2)nc2[nH]ccc12 [I-a-1] |  |  | 2040 nM | +++ | +++ | +++ | +++ |  |  |  | inhibition at 3.3 µM (SK-MEL-28): 64%; inhibition at 3.3 µM (MDA-MB-435S): 56.2%; inhibition at 3.3 µM (HepG2): 64.8%; inhibition at 3.3 µM (BGC823): 54%; inhibition at 3.3 µM (A549): 65.3%; inhibition at 3.3 µM (HCT116): 55.8%; tumor volume (MDA-MB-231 xenograft; MDA-MB-231 xenograft mice, tail vein, 5 mg/kg, 20 mg/kg every day, FIG. 4a): effectively inhibit the increase of tumor volume, with good dose dependence; final tumor weight (MDA-MB-231 xenograft; MDA-MB-231 xenograft mice, tail vein, 5 mg/kg, 20 mg/kg every day, FIG. 4b): significantly smaller than that in the control group, with good dose dependence; tumor growth (MDA-MB-231 xenograft; MDA-MB-231 xenograft, nude mice, intravenous, 5 mg/kg and 20 mg/kg once a day, 12 days, FIG. 4): Effectively Inhibited Tumor Growth; inhibition at 3.3 µM (MDA-MB-231): 48.4%; inhibition at 3.3 µM (SK-MEL-30): 61.9%; inhibition at 3.3 µM (A375): 94%; inhibition at 3.3 µM (MCF-7): 44.2% |
| Cc1ccc(NC(=O)c2ccc(C(F)(F)F)cc2)cc1Nc1nc(-c2cccnc2)c2[nH]ccc2n1 [V-c-23] | 33 nM |  |  | ++ | − | ++ | − | 27.2% | 15.8% | 94.9% |  |

More lines, main results first:

| Kd (PIKfyve protein) | Structure (SMILES) | immature cathepsin A and cathepsin D (Western Blot) (JeKo-1 cells [1]) | IC50 (JeKo-1 cells [2]) | degree of vacuolation, 1 μM, 24 h (MDA-MB-231 cells) | degree of vacuolation, 1 μM, 48 h (MDA-MB-231 cells) | degree of vacuolation, 10 μM, 24 h (MDA-MB-231 cells) | degree of vacuolation, 10 μM, 48 h (MDA-MB-231 cells) | inhibition at 3.3 µM (ST486 cells) | inhibition at 10 µM (JeKo-1 cells [2]) | inhibition at 3.3 µM (Toledo cells) | other results |
| --- | --- | --- | --- | --- | --- | --- | --- | --- | --- | --- | --- |
| 140 nM | Cc1ccc(NC(=O)Nc2cccc(C(F)(F)F)c2)cc1Nc1nc(-c2cccnc2)c2[nH]ccc2n1 [V-c-15] |  |  | ++ | ++ | ++ | ++ | 57.5% | 35.1% | 99.6% |  |
| 640 nM | COc1ccc(C(=O)Nc2cccc(C(F)(F)F)c2)cc1Nc1nc(-c2cccnc2)c2[nH]ccc2n1 [V-c-17] | immature cathepsins A and D gradually increase, with good dose dependence; also recorded: immature cathepsin A and cathepsin D increased, and had good concentration dependence | 743 nM | ++ | − | ++ | + | 95.7% |  | 99.7% | tumor volume (JeKo-1 xenograft; JeKo-1 xenograft mice, tail vein, FIG. 5a): effectively inhibit the increase of tumor volume, with good dose dependence; final tumor weight (JeKo-1 xenograft; JeKo-1 xenograft mice, tail vein, FIG. 5b): significantly smaller than that in the control group, with good dose dependence; tumor growth (JeKo-1 xenograft; JeKo-1 xenograft, nude mice, intravenous, 7 days, FIG. 5): Effectively Inhibited Tumor Growth |
